Results taken from US20190352339A1, “PEPTIDE INHIBITOR OF TRANSMEMBRANE PORE FORMATION AND EFFLUXPUMP FUNCTION IN A SMALL MULTIDRUG RESISTANCE PROTEIN FROM PSEUDOMONAS AERUGINOSA” (priority 2017, published 2019).
Square brackets hold non-standard residues; d marks the D form. Peptide text beside a SMILES is read from it. Sar = CNCC(=O)O

Columns and labels:
Hsmr = assay: EtBr efflux assay, E. coli expressing Hsmr; format: cell-based, Halobacterium salinarum; conditions: E. coli cells expressing Hsmr, EtBr fluorescence decay
Description: (§1) FIG. 4. (A) Proof-of-concept: Inhibition of Hsmr activity by an SMR TM4-mimic peptide. Hsmr-mediated efflux of the fluorescent toxicant ethidium bromide (EtBr) from E. coli cells upon treatment with a peptide derived from Hsmr TM4(85-105) [sequence shown]. Curves represent the change in EtBr fluorescence upon exiting the bacteria. Ac-A=acetyl-Ala. The black line indicates efflux by Hsmr in the absence of peptide; red line=efflux after addition of 1 μM TM4 peptide. The % efflux is compared in the black and red bars at the right. (B) Bioactivity profiles of designed SMR drug efflux inhibitor peptides. Four assays—EtBr efflux activity (Efflux), EtBr resensitization (ER), antimicrobial activity (AA), and hemolytic activity in human red blood cells (RBC) are depicted for linear peptides TM4(85-105) (left panel), and TM4(88-100) (centre); and stapled (S) peptide S-TM4(88-100)-N95 (right). Values for ER, AA and RBCs are given as the minimal inhibitory (MIC) or hemolytic concentration (MHC) (right axis).
FIG. 5. (A) Ethidium bromide efflux from E. coli bacteria expressing Hsmr. Peptides were added to ethidium bromide (EtBr) treated cells and incubated for 1 hr. The fluorescence of EtBr drops as the toxin is effluxed from the cells. ‘No peptide’ (maximum efflux control) is depicted in black. The core sequences of the peptides studied are based on the consensus sequence in Table 1. Residues in red emphasize retention of the common SMR TM4-TM4 interface in pathogenic bacteria. (B) EtBr efflux from E. coli containing plasmid-borne SMR from P. aeruginosa, (Psmr), as mediated by peptide LIN (full sequence=Ac-A(Sar)3-^88IIGIALINAGVVV^100-KKK-NH2). This experiment was performed as described in FIG. 4. […]
EtBr efflux represents a rapid and validated means by which to screen for SMR-mediated resistance activity [Poulsen and Deber, 2012, Antimicrob. […] Upon its removal, EtBr efflux is monitored by fluorescence decay.

[1] = test system: human red blood cells (RBCs); format: cell-based; conditions: for minimal hemolytic concentration (MHC): red cells of human
Description: as §1
As a necessary measure for any projected clinical applications of the designed inhibitors, hemolytic activity of peptides is assayed in human RBCs to confirm mammalian cell tolerance [Yin et al., 2012, J. Biol. Chem. 287, 7738-7745].

[2] = test system: E. coli (BL21 strain) overexpressing the SMR from P. aeruginosa (Psmr); assay: Resensitization of bacteria to growth inhibition by benzalkonium chloride (BZK); format: cell-based; conditions: for inhibition of bacterial growth, single agent: agent alone (sublethal BZK or non-toxic dose of peptide); for inhibition of bacterial growth, single agent / inhibition of bacterial growth, peptide together with BZK: result in words; for inhibition of bacterial growth, peptide together with BZK: sub-lethal concentration of BZK plus peptide
Description: FIG. 7. Resensitization of bacteria to growth inhibition by the disinfectant benzalkonium chloride (BZK). […] However, when the BZK and TM4 peptide were both present at the same concentrations, the bacterial growth was reduced to <1% [i.e., inhibited to >99% (arrow)]. As a control, the same experiment was performed with a ‘scrambled’ version of TM4 peptide (termed SCR control), having identical amino acid composition but lacking the GG7 motif for binding to Psmr and disruption of its native dimer. […] TM4 peptide=Ac-Ala-(Sar)3-[…]-KKK—NH2 (see also Table 1). SCR control peptide=Ac-Ala-(Sar)3-LLVLAGIGIIGLV-KKK—NH2.
Antimicrobial peptides are exciting leads in the development of novel biocidal agents. Such peptides are currently used commercially in topical formulations, such as the lipopeptides polymyxin B and daptomycin [Kalorama Information Market Intelligence Report, “Health Care Infection Control Market” (126 reports; published on-line May, 2016)]. […] 2013. p. 128]. Despite this, we are not aware of any reports of a peptide that inhibits and/or prevents bacterial resistance to BZK and to other biocide mainstays of hospital and health care facilities. In this context, we examined the ability of the prototypic inhibitor peptides described herein to resensitize pathogenic bacteria to BZK and related disinfectants.

E. coli = assay: EtBr resensitization assay; format: cell-based; conditions: sublethal toxicant plus peptide; FIG. 4B, result in words
Description: as §1
Resensitization to EtBr and other toxic SMR substrates are evaluated by incubating the bacteria with a sublethal concentration of the toxicant and twofold dilutions of peptide at 37° C. for 20 hr, after which bacterial growth (or lack thereof) is evaluated [Bellman-Sickert et al., 2015, J. Biol. Chem. 290, 1752-1759]. […]

[3] = biological target: T1, SMR from P. aeruginosa (Psmr) (Pseudomonas aeruginosa, UniProt Q9HUH5); assay: EtBr efflux assay, E. coli containing plasmid-borne Psmr; format: cell-based; conditions: 8 μM peptide; FIG. 5B
T1 construct: expressed in transfected cells; host or cells: E. coli
T1 sequence (Q9HUH5 whole entry, looked up): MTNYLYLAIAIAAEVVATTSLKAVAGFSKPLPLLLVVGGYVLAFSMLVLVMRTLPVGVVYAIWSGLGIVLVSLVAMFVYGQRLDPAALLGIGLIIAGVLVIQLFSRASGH
Description: FIG. 5. (A) Ethidium bromide efflux from E. coli bacteria expressing Hsmr. Peptides were added to ethidium bromide (EtBr) treated cells and incubated for 1 hr. The fluorescence of EtBr drops as the toxin is effluxed from the cells. ‘No peptide’ (maximum efflux control) is depicted in black. The core sequences of the peptides studied are based on the consensus sequence in Table 1. Residues in red emphasize retention of the common SMR TM4-TM4 interface in pathogenic bacteria. (B) EtBr efflux from E. coli containing plasmid-borne SMR from P. aeruginosa, (Psmr), as mediated by peptide LIN (full sequence=Ac-A(Sar)3-^88IIGIALINAGVVV^100-KKK-NH2). This experiment was performed as described in FIG. 4.
EtBr efflux represents a rapid and validated means by which to screen for SMR-mediated resistance activity [Poulsen and Deber, 2012, Antimicrob. Agents Chemother. 56, 3911-3916]. Here, E. coli cells are incubated with the peptide, EtBr and carbonyl cyanide 3-chlorophenylhydrazone (CCCP), a widely-used ionophore that acts as a disruptor of the proton-motive force. Upon its removal, EtBr efflux is monitored by fluorescence decay.
In this context, we have recently performed two pilot studies. […]

[4] = sublethal BZK and non-toxic dose of peptide both present, FIG. 7

Compound	inhibition of Hsmr-mediated EtBr efflux (Hsmr)	hemolytic activity [1]	minimal hemolytic concentration (MHC) [1]	inhibition of bacterial growth, single agent [2]	inhibition of bacterial growth, peptide together with BZK [2]	also measured
CC[C@H](C)[C@H](NC(=O)[C@H](CC(C)C)NC(=O)[C@H](C)NC(=O)[C@H](CC(C)C)NC(=O)CNC(=O)[C@@H](NC(=O)[C@@H](NC(=O)CNC(=O)[C@H](C)NC(=O)[C@@H](NC(=O)CN(C)C(=O)CN(C)C(=O)CN(C)C(=O)[C@H](C)NC(C)=O)C(C)C)C(C)C)C(C)C)C(=O)N[C@H](C(=O)N[C@@H](C)C(=O)NCC(=O)N[C@H](C(=O)N[C@H](C(=O)N[C@H](C(=O)N[C@@H](CC(C)C)C(=O)N[C@@H](CC(N)=O)C(=O)N[C@H](C(=O)N[C@@H](C)C(=O)N[C@@H](CO)C(=O)N[C@@H](CCCCN)C(=O)N[C@@H](CCCCN)C(=O)N[C@@H](CCCCN)C(N)=O)C(C)C)C(C)C)C(C)C)C(C)C)C(C)C [TM4(85-105)] (Ac-A[Sar][Sar][Sar]VAGVVGLALIVAGVVVLNVASKKK-NH2)	specifically inhibit Hsmr-mediated efflux	partially hemolytic	~10 µM			
benzalkonium chloride [BZK, reference compound]				neither of which individually significantly inhibited bacterial growth		
CC[C@H](C)[C@H](NC(=O)[C@H](CC(C)C)NC(=O)[C@H](C)NC(=O)[C@H](CC(C)C)NC(=O)CNC(=O)[C@@H](NC(=O)[C@@H](NC(=O)CN(C)C(=O)CN(C)C(=O)CN(C)C(=O)[C@H](C)NC(C)=O)C(C)C)C(C)C)C(=O)N[C@H](C(=O)N[C@@H](C)C(=O)NCC(=O)N[C@H](C(=O)N[C@H](C(=O)N[C@H](C(=O)N[C@@H](CCCCN)C(=O)N[C@@H](CCCCN)C(=O)N[C@@H](CCCCN)C(N)=O)C(C)C)C(C)C)C(C)C)C(C)C [TM4(88-100)] (Ac-A[Sar][Sar][Sar]VVGLALIVAGVVVKKK-NH2)	significant efflux	total absence of hemolysis	> 200 µM			inhibition of Hsmr-mediated EtBr efflux (Hsmr; listed as Hsmr TM4(88-100)): maintain SMR inhibitory function at levels comparable to the full-length TM4 peptide; EtBr resensitization (ER) (E. coli): excellent resensitization
Ac-Ala-(Sar)3-LLVLAGIGIIGLV-KKK—NH2 (Ac-A[Sar][Sar][Sar]LLVLAGIGIIGLVKKK-NH2; SMILES CC[C@H](C)[C@H](NC(=O)CNC(=O)[C@H](C)NC(=O)[C@H](CC(C)C)NC(=O)[C@@H](NC(=O)[C@H](CC(C)C)NC(=O)[C@H](CC(C)C)NC(=O)CN(C)C(=O)CN(C)C(=O)CN(C)C(=O)[C@H](C)NC(C)=O)C(C)C)C(=O)NCC(=O)N[C@H](C(=O)N[C@H](C(=O)NCC(=O)N[C@@H](CC(C)C)C(=O)N[C@H](C(=O)N[C@@H](CCCCN)C(=O)N[C@@H](CCCCN)C(=O)N[C@@H](CCCCN)C(N)=O)C(C)C)[C@@H](C)CC)[C@@H](C)CC) [SCR peptide, scrambled version of TM4 peptide, identical composition but lacking the GG7 motif, reference compound]				neither the mixture of BZK+SCR peptide nor the SCR peptide alone inhibited bacterial growth	neither the mixture of BZK+SCR peptide nor the SCR peptide alone inhibited bacterial growth	inhibition of bacterial growth, peptide together with BZK ([2]; listed as ‘scrambled’ analog of the TM4 peptide): inactive
Ac-Ala-(Sar)3-LLGIGLIIAGVLV-KKK—NH2 (Ac-A[Sar][Sar][Sar]LLGIGLIIAGVLVKKK-NH2; SMILES CC[C@H](C)[C@H](NC(=O)CNC(=O)[C@H](CC(C)C)NC(=O)[C@H](CC(C)C)NC(=O)CN(C)C(=O)CN(C)C(=O)CN(C)C(=O)[C@H](C)NC(C)=O)C(=O)NCC(=O)N[C@@H](CC(C)C)C(=O)N[C@H](C(=O)N[C@H](C(=O)N[C@@H](C)C(=O)NCC(=O)N[C@H](C(=O)N[C@@H](CC(C)C)C(=O)N[C@H](C(=O)N[C@@H](CCCCN)C(=O)N[C@@H](CCCCN)C(=O)N[C@@H](CCCCN)C(N)=O)C(C)C)C(C)C)[C@@H](C)CC)[C@@H](C)CC) [TM4 peptide]				neither of which individually significantly inhibited bacterial growth	completely abolishes E. coli growth	bacterial growth [2, 4]: < 1%; inhibition of bacterial growth [2, 4]: > 99%
Ac-A(Sar)3-^88IIGIALINAGVVV^100-KKK-NH2 (Ac-A[Sar][Sar][Sar]IIGIALINAGVVVKKK-NH2; SMILES CC[C@H](C)[C@H](NC(=O)CNC(=O)[C@@H](NC(=O)[C@@H](NC(=O)CN(C)C(=O)CN(C)C(=O)CN(C)C(=O)[C@H](C)NC(C)=O)[C@@H](C)CC)[C@@H](C)CC)C(=O)N[C@@H](C)C(=O)N[C@@H](CC(C)C)C(=O)N[C@H](C(=O)N[C@@H](CC(N)=O)C(=O)N[C@@H](C)C(=O)NCC(=O)N[C@H](C(=O)N[C@H](C(=O)N[C@H](C(=O)N[C@@H](CCCCN)C(=O)N[C@@H](CCCCN)C(=O)N[C@@H](CCCCN)C(N)=O)C(C)C)C(C)C)C(C)C)[C@@H](C)CC)						inhibition of Psmr-mediated EtBr efflux [3]: inhibition of efflux
